Where two headings read alike, the source gives them in different places.
Assay: Tigecycline plasma PK and % F after PO enteric-coated capsule in dogs
Assay type: in vivo, Beagle dogs
Conditions: female, beagle, dog, plasma, po; for concentration at 60 min / concentration at 75 min / concentration at 90 min / concentration at 120 min / concentration at 150 min / concentration at 180 min / concentration at 210 min / concentration at 240 min / concentration at 0 hr / concentration at 0.3 hr / concentration at 0.7 hr / concentration at 1 hr: Tigecycline Plasma Concentration; for concentration at 60 min / concentration at 75 min / concentration at 90 min / concentration at 120 min / concentration at 150 min / concentration at 180 min / concentration at 210 min / concentration at 240 min: SC424; for bioavailability: read-out: % F; for Tmax: read-out: Tmax (converted); for concentration at 0 hr / concentration at 0.3 hr / concentration at 0.7 hr / concentration at 1 hr: PO 30 mg unformulated enteric-coated capsule
Description: Adult beagle dogs weighing approximately 9 to 15 kg were used in the study. […] Room temperature was set to be maintained between approximately 20±5° C. Relative humidity was monitored but not controlled.
TEKLAD™ Certified Canine Diet was provided once daily in amounts (˜400 grams) appropriate for the size and age of the animals. Tap water was available ad libitum via automatic watering device or water bowls.
Oral dosing of enteric-coated capsules was accomplished by administering them to the back of the dog's mouth, followed by a chase of 5 mL water to ensure swallowing.
Water was provided ad libitum. […] Subsequently, each group of animals was dosed based on the protocol, i.e. either IV, or PO by capsule.
Minocycline (VWR international) was used as an internal standard. Sample processing/clean-up of plasma samples was carried out offline by protein precipitation with acidified acetonitrile using 0.5% trifluoroacetic acid (TFA).
The HPLC system consisted of Shimadzu SIL-HTc HPLC system equipped with dual Shimadzu LC-10ADvp isopumps, a Shimadzu CTO-10ASvp column temperature controller and a Shimadzu SPD-10Avp variable wavelength detector. […] Mobile phase A consisted of 23 mM phosphate buffer pH 2.5 with 4 mM 1-octanesulfonic acid, while mobile phase B consisting of 90% acetonitrile, 10% water, with 2 mM 1-octanesulfonic acid. […] The total runtime was 18 minutes per sample. The mobile phase flow rate was 1.2 mL/min. Detection was performed using the SPD-10Avp variable wavelength detector set at 350 nm, with a sensitivity of 0.001 aufs.
The samples were then centrifuged under refrigeration at 13 k rpm for 5 minutes. The supernatant was taken and the liquid removed to dryness under nitrogen in a turbovap. The dried extract was reconstituted in 60 μL of mobile phase A and the suspension was further centrifuged at 5 k rpm for 5 minutes to pellet any insoluble matter. The resulting supernatant was then injected onto the LC.
The unknown concentration in dog plasma samples was determined by interpolation of the peak area ratios of analyte:internal standard versus the ratio of their nominal concentrations into the regression line obtained from calibration standards spiked in pooled dog plasma. No regression weighting was used for the calculations. […] The calibration curve covered the range of 0.05 μg/mL to 5 μg/mL. […]
The capsules were enterically coated using a standard preclinical protocol to 10% weight gain. Two studies were conducted.

[1] = 15 mg, PO 15 mg enteric-coated capsule with 500 mg CA and 100 mg LLC, mean
[2] = 15 mg, PO 15 mg unformulated enteric-coated capsule, individual dogs
[3] = 15 mg, PO 15 mg unformulated enteric-coated capsule, mean
[4] = 30 mg, 30 mg Formulated (500 mg CA, 100 mg LLC) enteric coated capsule, Study 2 (SC430), mean (% CV) excluding animal 5256

CN(C)c1cc(NC(=O)CNC(C)(C)C)c(O)c2c1C[C@H]1C[C@H]3[C@H](N(C)C)C(O)=C(C(N)=O)C(=O)[C@@]3(O)C(O)=C1C2=O [Tigecycline]
concentration at 60 min [1]: 18.7 ng/mL
concentration at 60 min [2]: 0 ng/mL
concentration at 60 min [3]: 0 ng/mL
concentration at 75 min [1]: 46.1 ng/mL
concentration at 75 min [2]: 0 ng/mL
concentration at 75 min [3]: 0 ng/mL
concentration at 90 min [1]: 53.8 ng/mL
concentration at 90 min [2]: 0 ng/mL
concentration at 90 min [3]: 0 ng/mL
concentration at 120 min [1]: 51.5 ng/mL
concentration at 120 min [2]: 0 ng/mL
concentration at 120 min [3]: 0 ng/mL
concentration at 150 min [1]: 41.7 ng/mL
concentration at 150 min [2]: 0 ng/mL
concentration at 150 min [3]: 0 ng/mL
concentration at 180 min [1]: 37.4 ng/mL
concentration at 180 min [2]: 0 ng/mL
concentration at 180 min [3]: 0 ng/mL
concentration at 210 min [1]: 36.3 ng/mL
concentration at 210 min [2]: 0 ng/mL
concentration at 210 min [3]: 0 ng/mL
concentration at 240 min [1]: 35.2 ng/mL
concentration at 240 min [2]: 0 ng/mL
concentration at 240 min [3]: 0 ng/mL
Cmax (15 mg, target dose 15 mg, enterically coated capsule, read-out: Observed Mean Cmax): 75.5 ng/mL
AUC(0-t) (15 mg, target dose 15 mg, enterically coated capsule, time scale adjusted to 4 hours, read-out: Observed AUC(0-t)): 133 ng·h/mL
bioavailability [4]: 14.9%
AUC(0-t) (30 mg, 30 mg Formulated (500 mg CA, 100 mg LLC) enteric coated capsule, Study 2 (SC430), mean (% CV) excluding animal 5256, read-out: AUC(0-t)): 367 ng·h/mL
Cmax (30 mg, 30 mg Formulated (500 mg CA, 100 mg LLC) enteric coated capsule, Study 2 (SC430), mean (% CV) excluding animal 5256, read-out: Cmax): 121 ng/mL
Tmax [4]: 1.58 h
bioavailability (30 mg, 30 mg Unformulated enteric coated capsule, Study 2 (SC430)): 0%
AUC(0-t) (30 mg, PO 30 mg enteric-coated capsule with 500 mg CA and 100 mg LLC ([…]), SC430, mean excluding animal 5256, read-out: AUC(0-t)): 367 ng·h/mL
Cmax (30 mg, PO 30 mg enteric-coated capsule with 500 mg CA and 100 mg LLC ([…]), SC430, mean excluding animal 5256, read-out: Cmax): 121 ng/mL
Tmax (30 mg, PO 30 mg enteric-coated capsule with 500 mg CA and 100 mg LLC ([…]), SC430, mean excluding animal 5256): 1.6 h
bioavailability (30 mg, PO 30 mg enteric-coated capsule with 500 mg CA and 100 mg LLC, SC430, calculated from IV PK data of SC431, mean excluding animal 5256): 14.9%
bioavailability (30 mg, PO 30 mg unformulated enteric-coated capsule ([…]), SC430, individual dogs): 0%
bioavailability (30 mg, PO 30 mg unformulated enteric-coated capsule ([…]), SC430, mean): 0%
Tmax (30 mg, Study 2 (SC430), 30 mg Formulated enteric coated capsule (500 mg citric acid, 100 mg LLC), oral, dogs, N=4 excluding animal 5256, mean (% CV)): 1.58 h
bioavailability (30 mg, Study 2 (SC430), 30 mg Unformulated enteric coated capsule (microcrystalline cellulose filler), oral, dogs, N=3, based on that study's IV arm): 0%
concentration at 0 hr (30 mg, SC430, individual dogs): 0 ng/mL
concentration at 0 hr (30 mg, SC430, mean): 0 ng/mL
concentration at 0.3 hr (30 mg, SC430, individual dogs): 0 ng/mL
concentration at 0.3 hr (30 mg, SC430, mean): 0 ng/mL
concentration at 0.7 hr (30 mg, SC430, individual dogs): 0 ng/mL
concentration at 0.7 hr (30 mg, SC430, mean): 0 ng/mL
concentration at 1 hr (30 mg, SC430, individual dogs): 0 ng/mL
concentration at 1 hr (30 mg, SC430, mean): 0 ng/mL

Reference: US9526785B2, “Pharmaceuticals for oral delivery” (Enteris BioPharma, Inc., priority 2013, dated 2016)
